The source of these data is patent US20170145002A1, “DEUTERATED ISOXAZOLE DERIVATIVES AND THEIR USE AS METABOTROPIC GLUTAMATE RECEPTOR POTENTIATORS” (AstraZeneca AB, priority 2015, published 2017).

In data set [1] the test system is recombinant CYP enzymes (CYP1A2, 2A6, 2B6, 2C8, 2C9, 2C19, 2D6, 2E1, 3A4 and 3A5). As to the kind of experiment: Turnover in recombinant CYP enzymes. The format is in vitro ADME. To be noted: 0.1 μM and 1 μM. As for the experimental part: To identify the enzymes responsible for P450 mediated metabolism, the turnover of Compound A was tested in recombinant CYP enzymes (CYP1A2, 2A6, 2B6, 2C8, 2C9, 2C19, 2D6, 2E1, 3A4 and 3A5) at 0.1 μM and 1 μM.

Data set [2] addresses T1, human metabotropic glutamate receptor 2 (mGluR2) (Homo sapiens, UniProt Q14416).
T1 construct: expressed in transfected cells; host or cells: CHO-K1
The data set can be described thus: Binding Assay (mGluR2 GTPγ35S assay). The format is biochemical. The note with it: membranes from CHO-K1 cells expressing human mGluR2; L-glutamate and GTPγ35S stimulation, 45 minutes, SPA. As for the experimental part: This assay was developed to measure the agonist and/or positive allosteric modulator (PAM) activity of compounds at the human metabotropic glutamate receptor 2 (mGluR2).
Crude membranes were prepared from CHO-K1 cells expressing human mGluR2 and stored at −80° C. in aliquots in 2 mg/mL concentrations using a previously described method Fenge et al., Cytotechnology 38 (2002). Assay buffer is defined as 0.22 μM filtered water containing 50 mM HEPES (Teknova), 10 mM MgCl2 (Teknova), 50 mM NaCl (Teknova), 100 μM DTT (Sigma 43819), pH 7.4. Membrane solution containing membranes, beads, and GDP diluted in assay buffer was prepared in excess and incubated for 15 to 30 minutes at room temperature (25° C.). Membrane solution was prepared in a per-well ratio of 1.8 μg membranes, 225 μg PVT-WGA SPA beads (Perkin Elmer RPNQ0001), 3.3 μM GDP (Sigma G7127) in assay buffer to a final per-well volume of 180 μl. Stimulation buffer was prepared by diluting L-glutamate to 10 μM and GTPγ^35S to 1 nM in assay buffer. […] 20 μL of stimulation buffer was then added to individual wells, plates were sealed, incubated on a shaker at room temperature for 45 minutes, centrifuged at 1000 RPM for 5 minutes and then assessed using a ^35S SPA Program (1 minute read time. Low Background Paralux) on a MicroBeta instrument (PerkinElmer, Waltham, Massachusetts).

The nature of data set [3]: Metabolite identification and relative abundance in human hepatocytes. The format is in vitro ADME. The note with it: Compound A 10 μM in human hepatocytes (1 million cells/mL), 4 hours, 37° C. As for the experimental part: Compound A was incubated at 10 μM in human hepatocytes (1 million cells/mL) for 4 hours at 37° C. under air with 5% CO2. The reaction was stopped by adding acetonitrile at a ratio of 3:1. Following centrifugation the supernatant was transferred to a clean tube and dried under a stream of N2. Following reconstitution in 30% acetonitrile, aliquots of the sample were injected onto a LC/UV/MS system for metabolite identification and profiling. This allowed assessment of the metabolites formed and an indication of their relative abundance (via UV, Table 6).

The nature of data set [4]: Pharmacokinetics after intravenous bolus in rats. The format is in vivo. To be noted: male Wistar rat, nominal dose 1.0 mg/kg, plasma. The procedure:
The animals were single dosed via intravenous (IV) bolus to tail vein over approximately 5 seconds. The animals were not fasted prior to dosing. The single dose formulation samples were collected from middle of formulation and stored at 5±3° C. for potential analysis. Animals were evaluated during in-life phase.
The blood samples were centrifuged at 2000 g for 5 minutes at 4° C. to obtain plasma. Plasma samples were stored in polypropylene tubes, quickly frozen in ice box and kept at −80° C. Plasma samples were deprotainated by solvent precipitation. Concentration of Compounds A and D in plasma and tissue samples were analyzed using a LC-MS/MS method. WinNonlin version 6.2 will be used for pharmacokinetic parameters calculations. AUC was calculated using log trapezoidal method.

Data set [5] in a line: Compound turnover and metabolite formation in human hepatocytes with or without CYP3A inhibitor ketoconazole. The format is in vitro ADME. As for the experimental part:
Approximately 10% of Compound A disappeared in 60 minutes.
Since Compound D was predominantly metabolized by CYP3A4, further experiments were conducted with Compound A in human hepatocytes in the presence and absence of CYP3A inhibitor ketoconazole. […] Parent disappearance data indicated a CYP3A involvement in the metabolism of Compound A (FIG. 1); however, the very low intrinsic clearance values make it difficult to provide an accurate determination of a percentage involvement of CYP3A via a substrate depletion method as described above.
Within the same experiments, the formation of Compound A metabolites in the absence of ketoconazole was observed (FIG. 2).

For another data set, the target named is mGluR2 (Homo sapiens, UniProt Q14416). To be noted: as disclosed in WO 2009/148403; cited from earlier work.
Chain of mGluR2 (Q14416 19-872): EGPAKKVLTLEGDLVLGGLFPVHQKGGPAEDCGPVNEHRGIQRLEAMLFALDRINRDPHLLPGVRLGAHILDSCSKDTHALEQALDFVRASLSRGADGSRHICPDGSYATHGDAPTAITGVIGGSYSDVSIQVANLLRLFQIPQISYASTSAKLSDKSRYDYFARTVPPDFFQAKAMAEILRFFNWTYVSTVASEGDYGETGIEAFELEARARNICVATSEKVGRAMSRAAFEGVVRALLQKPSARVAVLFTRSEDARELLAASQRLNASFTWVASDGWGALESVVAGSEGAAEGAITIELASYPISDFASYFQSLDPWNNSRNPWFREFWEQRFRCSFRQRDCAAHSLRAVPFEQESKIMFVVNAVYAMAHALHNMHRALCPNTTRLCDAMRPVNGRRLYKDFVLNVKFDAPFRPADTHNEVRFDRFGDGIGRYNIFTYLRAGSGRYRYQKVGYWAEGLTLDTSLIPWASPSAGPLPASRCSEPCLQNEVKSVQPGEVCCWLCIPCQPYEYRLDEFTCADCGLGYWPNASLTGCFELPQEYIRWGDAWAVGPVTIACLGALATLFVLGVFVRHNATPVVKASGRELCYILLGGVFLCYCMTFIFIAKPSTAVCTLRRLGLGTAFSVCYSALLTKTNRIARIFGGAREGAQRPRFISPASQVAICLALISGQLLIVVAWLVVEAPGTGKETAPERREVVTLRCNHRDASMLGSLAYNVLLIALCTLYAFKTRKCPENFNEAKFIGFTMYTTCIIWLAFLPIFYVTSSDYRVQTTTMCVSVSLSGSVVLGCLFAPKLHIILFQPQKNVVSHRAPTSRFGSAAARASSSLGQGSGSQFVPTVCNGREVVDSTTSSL
For data set [6] the following is noted: as disclosed in WO 2009/148403; cited from earlier work.
A further data set addresses hERG ion channel (Homo sapiens, UniProt Q12809). The note with it: as disclosed in WO 2009/148403; cited from earlier work.

T1 sequence (Q14416 19-872): as above
Chain of hERG ion channel (Q12809 whole entry): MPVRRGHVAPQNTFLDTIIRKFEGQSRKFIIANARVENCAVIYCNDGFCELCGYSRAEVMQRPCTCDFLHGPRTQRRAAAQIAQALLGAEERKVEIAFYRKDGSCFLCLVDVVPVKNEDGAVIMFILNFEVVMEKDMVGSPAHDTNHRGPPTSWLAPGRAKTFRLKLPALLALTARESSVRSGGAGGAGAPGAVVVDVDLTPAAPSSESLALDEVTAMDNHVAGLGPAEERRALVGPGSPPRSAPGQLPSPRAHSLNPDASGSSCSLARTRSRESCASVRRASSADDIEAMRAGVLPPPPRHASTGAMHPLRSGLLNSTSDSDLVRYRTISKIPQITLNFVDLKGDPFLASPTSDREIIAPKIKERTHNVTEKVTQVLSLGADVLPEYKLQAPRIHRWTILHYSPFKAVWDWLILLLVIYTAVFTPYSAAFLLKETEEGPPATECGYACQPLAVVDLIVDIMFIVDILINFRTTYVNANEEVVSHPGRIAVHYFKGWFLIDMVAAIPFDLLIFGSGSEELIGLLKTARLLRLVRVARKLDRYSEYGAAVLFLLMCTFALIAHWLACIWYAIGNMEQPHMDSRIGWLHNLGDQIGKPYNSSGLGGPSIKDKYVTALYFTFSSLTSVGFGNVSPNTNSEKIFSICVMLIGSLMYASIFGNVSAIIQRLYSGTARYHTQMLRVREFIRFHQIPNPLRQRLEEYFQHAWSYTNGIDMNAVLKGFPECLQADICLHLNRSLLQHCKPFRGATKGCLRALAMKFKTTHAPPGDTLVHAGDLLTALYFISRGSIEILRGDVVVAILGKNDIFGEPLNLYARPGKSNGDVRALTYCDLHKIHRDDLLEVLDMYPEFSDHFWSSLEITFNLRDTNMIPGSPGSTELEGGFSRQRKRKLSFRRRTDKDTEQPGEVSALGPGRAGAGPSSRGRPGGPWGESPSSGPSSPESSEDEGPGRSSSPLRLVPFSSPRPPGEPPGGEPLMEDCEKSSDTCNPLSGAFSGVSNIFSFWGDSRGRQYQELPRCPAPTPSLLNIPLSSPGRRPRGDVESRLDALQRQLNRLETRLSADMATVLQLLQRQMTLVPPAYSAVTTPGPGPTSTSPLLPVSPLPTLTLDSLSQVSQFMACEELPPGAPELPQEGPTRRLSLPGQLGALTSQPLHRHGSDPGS

Broadly, the EC50 is the concentration giving half of the maximal effect. Low readings indicate a more potent agent, high ones a less potent agent. As usually defined, the AUC is the area under the concentration-time curve, a measure of exposure. A word on the clearance: it is the rate of elimination divided by the concentration. As a reminder, the half-life is the time needed for the level to fall by half in the phase considered. Low values mean rapid decline, high ones slow decline. Take `[2H]C1([2H])OC([2H])([2H])C([2H])([2H])N(C(=O)c2cc(-c3cc(Cl)c4c(c3)CN([C@@H](C)C3CC3)C4=O)on2)C1([2H])[2H]` [Compound A, (S)-7-chloro-2-(1-cyclopropylethyl)-5-(3-(morpholine-4-carbonyl-2,2,3,3,5,5,6,6-d8)isoxazol-5-yl)isoindolin-1-one]: the “Turnover in recombinant CYP enzymes” value in data set [1] is listed as “No significant turnover was observed”. The compound further returned an EC50 in data set [2] of 170 ± 9 nM. In addition, in data set [3], the “Relative UV abundance (%) Human” value was 94.2%. In data set [4], this compound had an AUC of 1.29 µM·h, a clearance of 31.1 mL/min/kg and a half-life of 45.7 min. Also, the “Turnover in human hepatocytes” value in data set [5] was “very low turnover”. Moreover, in data set [5] (60 minutes, absence of ketoconazole), the Parent compound disappeared result is “Approximately 10%”. Besides, the “Turnover in presence of CYP3A inhibitor” value in data set [5] (with ketoconazole) is listed as “No turnover was observed”.
On to `C[C@@H](C1CC1)N1Cc2cc(-c3cc(C(=O)N4CCOCC4)no3)cc(Cl)c2C1=O` [Compound D, (S)-7-chloro-2-(1-cyclopropylethyl)-5-(3-(morpholine-4-carbonyl)isoxazol-5-yl)isoindolin-1-one, reference compound], for which, at mGluR2, the mGluR2 modulator activity entry is “highly active”. The “Turnover in recombinant CYP enzymes” value in data set [1] is “predominantly metabolised by CYP3A4”. In addition, the Solubility entry in data set [6] is given as “favorable solubility”. In data set [2], the midpoint of the response, the EC50, lay at 121 ± 56 nM. The “Capacity to activate the hERG ion channel” value on hERG ion channel was “low capacity to activate the hERG ion channel”. In data set [4], this compound gave an AUC of 0.915 µM·h, a clearance of 44.3 mL/min/kg and a half-life of 48.8 min.
